Data taken from US20040082503A1, “Methods for treatment of diabetes using peptide analogues of insulin” (Neurocrine Biosciences, Inc., priority 1998, published 2004).

Columns and labels:
[1] = system: insulin B chain (9-23) responsive T cell lines from diabetic patients; experiment: Proliferation of T cell lines from diabetic patients; assay type: cell-based, human; details: for Stimulation Index: 50 μM peptide
Experimental: FIGS. 4-6 are histograms illustrating the proliferative response (measured in cpm) of T cell lines from different diabetic patients to the native B chain (9-23) peptide or to representative peptide analogues. Peripheral blood mononuclear cells were isolated from diabetic patients and cultured in the presence of insulin B chain (9-23) peptide. After three rounds of restimulation with insulin B chain (9-23), 1×10^5 T-cells and 7×10^4 irradiated autologous PBMCs were added to each well in a round bottom 96-well plate in complete medium. Cells were cultured for 5 days with NBI-6024 (insulin B chain 9-23 with alanine substitutions at positions 16 and 19), insulin B chain (9-23) or medium only. On day 4, the cells were pulsed with ^3H-thymidine and re-cultured for an additional 18 hours. The cultures were then harvested, counted using liquid scintillation, and the data was expressed as the mean counts per minute (cpm) of replicate samples±standard error of the mean (sem).
FIG. 7 is a histogram illustrating the proliferative response (measured in cpm) of a T cell line from a diabetic patient to the native B chain (9-23) peptide or to representative peptide analogues containing alanine substitutions as indicated. Peripheral blood mononuclear cells were isolated from diabetic patients and cultured in the presence of insulin B chain (9-23) peptide. After three rounds of restimulation with insulin B chain (9-23), 1×10^5 T-cells and 7×10^4 irradiated autologous PBMCs were added to each well in a round bottom 96-well plate in complete medium. Cells were cultured for 5 days with analogue, insulin B chain (9-23) or medium only (BKG), as indicated. On day 4, the cells were pulsed with ^3H-thymidine and re-cultured for an additional 18 hours. The cultures were then harvested, counted using liquid scintillation, and the data was expressed as the mean counts per minute (cpm) of replicate samples±standard error of the mean (sem).
Peptide analogues of B chain (9-23) containing alanine substitutions at residues 13, 15, 16 or 17 or the doubly substituted alanine analog A^16, 19 (NBI-6024) were prepared as described in Example 1. T cell lines from diabetic patients were prepared by isolating lymphocytes from the blood of the patient by subjecting the blood to a density gradient separation. Isolated lymphocytes were then cultured in the presence of the insulin B chain (9-23) peptide (10 μM) and recombinant human IL-2 in the presence of 5-10% of autologous serum and irradiated autologous peripheral blood lymphocytes in culture medium. Four to five days later cells were harvested and the cycle repeated for 2 or 3 times.
Proliferation of the T cell line, in response to the native B chain (9-23) peptide (SEQ ID NO:2) or to the peptide analogs, was measured by culturing 25,000 to 100,000 T cells in the presence of 50,000-200,000 irradiated autologous PBLs and different concentrations of the insulin B chain (9-23) peptide or a peptide analogue in triplicate cultures. Following 4-5 days of culture, including the last 18 hours with radioactive thymidine, cells were harvested and the associated radioactivity was counted in a liquid scintillation counter. Results are expressed as mean counts per minute for each of the peptide analogues tested.

[2] = system: NOD mice (spontaneous diabetes); experiment: Reduction of incidence of diabetes in NOD mice; assay type: in vivo, NOD mouse
[3] = system: Murine NOD T cell clone PD12-2.35 response to insulin B chain (9-23) peptide; experiment: Antagonism of T cell proliferation assay, clone PD12-2.35; assay type: cell-based, mouse (NOD); details: for % Inhibition: N/A = no inhibition observed
Experimental: Peptide analogues of B chain (9-23) containing alanine substitutions at residue 12, 13, 15 or 16 or the doubly substituted peptide at positions 16 and 19 (A^16,19; NBI-6024) were prepared as described in Example 1. T cell antagonism was detected by evaluating the ability of the peptide analogues to inhibit T cell proliferation induced by native B chain (9-23) (SEQ ID NO:2). In this assay, antigen presenting cells were first irradiated and then incubated with the competing peptide analogue and the native B chain (9-23) peptide. T cells were then added to the culture. Various concentrations of candidate peptide analogues were included in cultures which were incubated for a total of 4 days. Following this incubation period, each culture was pulsed with 1 μCi of [^3H]-thymidine for an additional 12-18 hours. Cultures were then harvested on fiberglass filters and counted as above. Mean CPM and standard error of the mean were calculated from data determined in triplicate cultures.
Within Table 4, the control peptide, NBI-5096, is an unrelated peptide from myelin basic protein. The percent inhibition was calculated as: (1−experimental cpm/insulin peptide cpm)×100%.

[4] = patient number 1 (ID 100) PBLs, CPM with antigen/CPM with medium alone
[5] = patient number 8 (ID 1100) PBLs
[6] = B(9-23) 5 μM + 10 μM competing peptide
[7] = B(9-23) 5 μM + 50 μM competing peptide

## Native 9-23: native peptide, residues 9-23 of human insulin B chain (SEQ ID NO:2) (SHLVEALYLVCGERG; Residues 9-23 of human insulin B chain; listed as Homo sapiens) [reference compound]
[1]; [4]
  Stimulation Index: 9.9
[1]; patient number 2 (ID 200) PBLs
  Stimulation Index: 5.3
[1]; patient number 3 (ID 400) PBLs
  Stimulation Index: 7.8
[1]; patient number 4 (ID 500) PBLs
  Stimulation Index: 2.1
[1]; patient number 5 (ID 600) PBLs
  Stimulation Index: 5.8
[1]; patient number 6 (ID 700) PBLs
  Stimulation Index: 3.2
[1]; patient number 7 (ID 900) PBLs
  Stimulation Index: 2.6
[1]; [5]
  Stimulation Index: 3.7
[2]; NOD mice, 400 μg s.c. weekly, 13 treatments, neurotensin as control, FIG. 10
  Incidence of diabetes (percent of mice diabetic): reduced the incidence of diabetes
[3]; B(9-23) 5 μM alone, medium only 213 ± 17
  CPM ± SEM: 7,840 ± 528 CPM

## NBI-6024: insulin B chain 9-23 with alanine substitutions at positions 16 and 19 (SHLVEALALVAGERG)
[1]; FIGS. 4-7, Table 5
  Stimulation of diabetic patients' T cell lines and clones responsive to native insulin B chain (9-23): do not respond
[1]; [4]
  Stimulation Index: 0.9
[1]; patient number 2 (ID 200) PBLs
  Stimulation Index: 1.2
[1]; patient number 3 (ID 400) PBLs
  Stimulation Index: 1.0
[1]; patient number 4 (ID 500) PBLs
  Stimulation Index: 0.9
[1]; patient number 5 (ID 600) PBLs
  Stimulation Index: 1.6
[1]; patient number 6 (ID 700) PBLs
  Stimulation Index: 1.5
[1]; patient number 7 (ID 900) PBLs
  Stimulation Index: 0.9
[1]; [5]
  Stimulation Index: 0.8
[2]; female NOD mice, 20 mg/kg (400 μg/mouse) s.c. weekly for 12 weeks then every other week until Week 35, p<0.004, FIG. 11
  Reduction of the incidence of diabetes compared to the untreated group: 60-70%
[2]; second experiment, NOD mice, 20 mg/kg s.c., FIG. 12
  Incidence of diabetes compared to neurotensin treated or untreated group: reduced incidence of diabetes
[3]; [6]
  CPM ± SEM: 4,441 ± 626 CPM
  % Inhibition: 43.0%
[3]; [7]
  CPM ± SEM: 1,389 ± 218 CPM
  % Inhibition: 82.0%
